Experimental data from patent publication US6586204B2, “Apoptosis gene EI24, compositions, and methods of use” (Apoptosis Technology, Inc., priority 1996, dated 2003).

How the values were obtained:
EI24 mRNA = assay: Northern blot of E1A/ras transformed murine embryonic fibroblasts, EI24 probe; format: cell-based
Method: (§1) Northern blot showing induction of EI24 RNA by p53 in E1A/ras transformed murine embryonic fibroblasts (MEFs). 1.0 μg of poly-A^+ RNA was loaded per lane. p53^+/+ and p53^−/− MEFs were left untreated, or treated with 50 μM etoposide for 6 hours, as indicated (lanes 1-4). Alternately, p53^−/− MEFs expressing either empty vector (pBabe Puro), or a tamoxifen-regulatable p53 (p53ER™) were left untreated, or treated with 3.3 μM tamoxifen (TMX) for 16 hours (lanes 5-8). The northern blot was hybridized sequentially with probes for EI24, p21/WAF1 and tubulin.
E1A and ras transformed mouse embryo fibroblasts and expression of the p53-ER™ fusion protein. Stable cell lines of p53^+/+ and p53^−/− MEFs expressing the oncogenes E1A and T24 H-ras were generated as described previously (Lowe S. W., Jacks T., Housman D. E. and Ruley H. E. (1994) Proc. Natl. Acad. Sci. USA, 91, 2026-2030). The plasmid for expression of the p53ER™ fusion protein, pBabe Puro p53ER™ G525R, using the retroviral vector pBabe Puro (Morgenstern J. P. and Land H. (1990) Nucl. Acids Res., 18, 3587-3596), was received as a generous gift from Trevor Littlewood (Imperial Cancer Research Fund, London). In brief, this plasmid contains the ˜1.3 kb BamHI fragment of human p53 from pSV53her (Roemer K. and Friedmann T. (1993) Proc. Natl. Acad. Sci. USA, 90, 9252-9256) fused to the ligand-binding domain of the murine estrogen receptor carrying a point mutation at amino acid 525 that renders the receptor unable to bind estradiol but able to bind tamoxifen or 4-hydroxy tamoxifen (Danielian P., White R., Hoare S., Fawell S. and Parker M. (1993) Mol Endocrinol, 7, 232-240; Littlewood T. D., Hancock D. C., Danielian P. S., Parker M. G. and Evan G. I. (1995) NAR, 23, 1686-1690). For induction of wild-type p53 activity, p53ER™ transfected p53^−/− cells were treated with […] tamoxifen (Sigma). […]

[1] = test system: 2.4 kb mRNA recognized by 11G10 (EI24); assay: Northern blot of etoposide-treated 3T3 cells, 11G10 probe; settings: 50 μM etoposide
p21/WAF1 mRNA = assay: Northern blot of E1A/ras transformed murine embryonic fibroblasts, p21/WAF1 probe; format: cell-based
Method: as §1
E1A and ras transformed mouse embryo fibroblasts and expression of the p53-ER™ fusion protein. Stable cell lines of p53^+/+ and p53^−/− MEFs expressing the oncogenes E1A and T24 H-ras were generated as described previously (Lowe S. W., Jacks T., Housman D. E. and Ruley H. E. (1994) Proc. Natl. Acad. Sci. USA, 91, 2026-2030). The plasmid for expression of the p53ER™ fusion protein, pBabe Puro p53ER™ G525R, using the retroviral vector pBabe Puro (Morgenstern J. P. and Land H. (1990) Nucl. Acids Res., 18, 3587-3596), was received as a generous gift from Trevor Littlewood (Imperial Cancer Research Fund, London). […]

[2] = test system: 5 kb mRNA detected by 38T19 probe; assay: Northern blot of etoposide-treated 3T3 cells, 38T19 probe; format: cell-based, Murine; settings: 50 μM etoposide, 6 to 11 hours after treatment
Method: Induction of the 2.4 kb mRNA appeared to be maximal by 6 hours after etoposide exposure, representing a 7-fold increase. […] The levels of this mRNA were highest in untreated cells, and decreased at 6 to 11 hours after etoposide treatment, corresponding to a 4-fold reduction.

NIH3T3 fibroblasts = assay: Etoposide exposure of asynchronously growing NIH3T3 fibroblasts, cell killing and microscopic observation; format: cell-based, Murine; settings: 50 μM etoposide

| Compound | induction of EI24 mRNA (EI24 mRNA; etoposide 50 μM, 6 hours, E1A/ras-transformed p53+/+ cells) | induction of EI24 mRNA (EI24 mRNA; etoposide 50 μM, 6 hours, E1A/ras-transformed p53−/− cells) | increase of 2.4 kb mRNA (EI24) ([1]; 3 hours post treatment) | increase of 2.4 kb mRNA (EI24), maximal induction ([1]; 6 hours after exposure) | induction of WAF1 RNA (p21/WAF1 mRNA; etoposide, p53−/− MEFs, maximal level lower than in p53+/+ cells) | reduction of 5 kb mRNA [2] | signs of apoptosis by microscopic observation (NIH3T3 fibroblasts; for at least 6 hours following exposure) | cell killing (NIH3T3 fibroblasts; within 24 hours, asynchronously growing NIH3T3 cells) | induction of EI24 mRNA (EI24 mRNA; tamoxifen, p53−/− control cell line (pBabe Puro) with empty vector) | induction of WAF1 mRNA (p21/WAF1 mRNA; tamoxifen treatment, p53ER p53−/− cells) |
| --- | --- | --- | --- | --- | --- | --- | --- | --- | --- | --- |
| COc1cc([C@@H]2c3cc4c(cc3[C@@H](O[C@@H]3O[C@@H]5CO[C@@H](C)O[C@H]5[C@H](O)[C@H]3O)[C@H]3COC(=O)[C@H]23)OCO4)cc(OC)c1O [etoposide, Etoposide] | further induced | No induction of EI24 | 4 fold | 7 fold | WAF1 RNA was induced | 4 fold | no obvious signs of apoptosis | kill the majority of asynchronously growing cells | – | – |
| CC/C(=C(\c1ccccc1)c1ccc(OCCN(C)C)cc1)c1ccccc1 [tamoxifen] | – | – | – | – | – | – | – | – | No EI24 induction | strongly induced |
